Assay results from US11078228B2, “Ectonucleotidase inhibitors and methods of use thereof” (Calithera Biosciences, Inc., priority 2018, dated 2021).

Target: recombinant CD73 (Homo sapiens (Human), UniProt P21589)
Test: Assay 2: Inhibition of the CD73 enzyme in vitro (0.05 nM CD73, 1 hour 37° C., Malachite Green)
Assay type: biochemical
Details: 0.05 nM CD73, 50 μM AMP, 1 hour at 37° C.
How it was run: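 Soluble recombinant CD73 reactions ran 1 hour at 37° C. Malachite Green was then added, and absorbance at 630 nm was read after 5 min at room temperature. Inorganic phosphate was quantified from a phosphate standard curve.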

Sequence of recombinant CD73 (P21589 27-547): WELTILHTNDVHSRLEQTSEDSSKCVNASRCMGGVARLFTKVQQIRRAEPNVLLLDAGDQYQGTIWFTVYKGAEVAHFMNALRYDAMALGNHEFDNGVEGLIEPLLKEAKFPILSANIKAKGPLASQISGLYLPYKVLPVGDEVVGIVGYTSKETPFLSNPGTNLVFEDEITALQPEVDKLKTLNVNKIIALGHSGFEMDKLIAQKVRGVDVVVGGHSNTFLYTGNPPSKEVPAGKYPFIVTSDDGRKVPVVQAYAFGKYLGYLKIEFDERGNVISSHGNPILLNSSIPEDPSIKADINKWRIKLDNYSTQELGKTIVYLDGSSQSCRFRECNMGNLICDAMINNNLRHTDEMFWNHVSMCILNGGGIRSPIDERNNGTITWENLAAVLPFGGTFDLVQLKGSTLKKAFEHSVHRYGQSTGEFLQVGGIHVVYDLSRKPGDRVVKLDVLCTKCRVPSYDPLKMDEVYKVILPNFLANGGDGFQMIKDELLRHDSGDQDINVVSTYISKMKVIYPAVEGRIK

SMILES	IC50
C#C[C@@]1(O)[C@@H](COC(Cc2ccccc2)(C(=O)O)C(=O)O)O[C@@H](n2cnc3c(N4CC[C@@H](CO)C4)nc(Cl)nc32)[C@@H]1O [Example 102, 2-benzyl-2-(((2R,3S,4R,5R)-5-(2-chloro-6-((R)-3-(hydroxymethyl)-pyrrolidin-1-yl)-9H-purin-9-yl)-3-ethynyl-3,4-dihydroxytetrahydrofuran-2-yl)methoxy)malonic acid]	1 nM
C#C[C@@]1(O)[C@@H](COC(Cc2ccccc2)(C(=O)O)C(=O)O)O[C@@H](n2cnc3c(N4CCC[C@@H]4CO)nc(Cl)nc32)[C@@H]1O [Example 103, 2-benzyl-2-(((2R,3S,4R,5R)-5-(2-chloro-6-((R)-2-(hydroxymethyl)-pyrrolidin-1-yl)-9H-purin-9-yl)-3-ethynyl-3,4-dihydroxytetrahydrofuran-2-yl)methoxy)malonic acid]	3 nM
C#C[C@@]1(O)[C@@H](COC(Cc2ccccc2)(C(=O)O)C(=O)O)O[C@@H](n2cnc3c(N4CCC[C@H]4CO)nc(Cl)nc32)[C@@H]1O [Example 104, 2-benzyl-2-(((2R,3S,4R,5R)-5-(2-chloro-6-((S)-2-(hydroxymethyl)-pyrrolidin-1-yl)-9H-purin-9-yl)-3-ethynyl-3,4-dihydroxytetrahydrofuran-2-yl)methoxy)malonic acid]	2 nM
C#C[C@@]1(O)[C@@H](COC(Cc2ccccc2)(C(=O)O)C(=O)O)O[C@@H](n2cnc3c(N(C)C4CC4)nc(Cl)nc32)[C@@H]1O [Example 105, 2-benzyl-2-(((2R,3S,4R,5R)-5-(2-chloro-6-(cyclopropyl(methyl)amino)-9H-purin-9-yl)-3-ethynyl-3,4-dihydroxytetrahydrofuran-2-yl)methoxy)malonic acid]	2 nM
C#C[C@@]1(O)[C@@H](COC(Cc2ccccc2)(C(=O)O)C(=O)NC)O[C@@H](n2cnc3c(NCC4CC4)nc(Cl)nc32)[C@@H]1O (stereo partly drawn) [Example 106, 2-benzyl-2-(((2R,3S,4R,5R)-5-(2-chloro-6-((cyclopropylmethyl)amino)-9H-purin-9-yl)-3-ethynyl-3,4-dihydroxytetrahydrofuran-2-yl)methoxy)-3-(methylamino)-3-oxopropanoic acid]	296 nM
C#C[C@@]1(O)[C@@H](COC(Cc2ccccc2)(C(=O)O)C(=O)NC)O[C@@H](n2cnc3c(NCc4ccccc4)nc(Cl)nc32)[C@@H]1O (stereo partly drawn) [Example 107, 2-benzyl-2-(((2R,3S,4R,5R)-5-(6-(benzylamino)-2-chloro-9H-purin-9-yl)-3-ethynyl-3,4-dihydroxytetrahydrofuran-2-yl)methoxy)-3-(methylamino)-3-oxopropanoic acid]	506 nM
C#C[C@@]1(O)[C@@H](COC(Cc2ccccc2)(C(=O)O)C(=O)OCC)O[C@@H](n2cnc3c(NCc4ccccc4Cl)nc(Cl)nc32)[C@@H]1O (stereo partly drawn) [Example 108, 2-benzyl-2-(((2R,3S,4R,5R)-5-(2-chloro-6-((2-chlorobenzyl)amino)-9H-purin-9-yl)-3-ethynyl-3,4-dihydroxytetrahydrofuran-2-yl)methoxy)-3-ethoxy-3-oxopropanoic acid]	3 nM
C#C[C@@]1(O)[C@@H](COC(Cc2ccccc2)(C(=O)O)C(=O)OCC)O[C@@H](n2cnc3c(NCc4ccncc4)nc(Cl)nc32)[C@@H]1O (stereo partly drawn) [Example 109, 2-benzyl-2-(((2R,3S,4R,5R)-5-(2-chloro-6-((pyridin-4-ylmethyl)amino)-9H-purin-9-yl)-3-ethynyl-3,4-dihydroxytetrahydrofuran-2-yl)methoxy)-3-ethoxy-3-oxopropanoic acid]	284 nM
C#C[C@@]1(O)[C@@H](COC(Cc2cc(C)on2)(C(=O)O)C(=O)O)O[C@@H](n2cnc3c(NC(C)C)nc(Cl)nc32)[C@@H]1O [Example 110, 2-(((2R,3S,4R,5R)-5-(2-chloro-6-(isopropylamino)-9H-purin-9-yl)-3-ethynyl-3,4-dihydroxytetrahydrofuran-2-yl)methoxy)-2-((5-methylisoxazol-3-yl)methyl)malonic acid]	3 nM
C#C[C@@]1(O)[C@@H](COC(Cc2cc(C)on2)(C(=O)O)C(=O)O)O[C@@H](n2cnc3c(NCc4ccc(F)cc4)nc(Cl)nc32)[C@@H]1O [Example 111, 2-(((2R,3S,4R,5R)-5-(2-chloro-6-((4-fluorobenzyl)amino)-9H-purin-9-yl)-3-ethynyl-3,4-dihydroxytetrahydrofuran-2-yl)methoxy)-2-((5-methylisoxazol-3-yl)methyl)malonic acid]	2670 nM
C#C[C@@]1(O)[C@@H](COC(Cc2nc3ccccc3s2)(C(=O)O)C(=O)O)O[C@@H](n2cnc3c(NCc4ccc(F)cc4)nc(Cl)nc32)[C@@H]1O [Example 112, 2-(benzo[d]thiazol-2-ylmethyl)-2-(((2R,3S,4R,5R)-5-(2-chloro-6-((4-fluorobenzyl)amino)-9H-purin-9-yl)-3-ethynyl-3,4-dihydroxytetrahydrofuran-2-yl)methoxy)malonic acid]	1360 nM

The next lines start with the values.

IC50	SMILES
58 nM	C#C[C@@]1(O)[C@@H](COC(C(=O)O)C(=O)O)O[C@@H](n2cnc3c(NC)nc(Cl)nc32)[C@@H]1O [Example 117, 2-(((2R,3S,4R,5R)-5-(2-chloro-6-(methylamino)-9H-purin-9-yl)-3-ethynyl-3,4-dihydroxytetrahydrofuran-2-yl)methoxy)malonic acid]
48 nM	C#C[C@@]1(O)[C@@H](COC(C(=O)O)C(=O)O)O[C@@H](n2cnc3c(NCc4ccccc4)nc(Cl)nc32)[C@@H]1O [Example 118, 2-(((2R,3S,4R,5R)-5-(6-(benzylamino)-2-chloro-9H-purin-9-yl)-3-ethynyl-3,4-dihydroxytetrahydrofuran-2-yl)methoxy)malonic acid]
4610 nM	C#C[C@@]1(O)[C@@H](COC(C(=O)O)S(=O)(=O)c2ccccc2)O[C@@H](n2cnc3c(N4CCOCC4)nc(Cl)nc32)[C@@H]1O (stereo partly drawn) [Example 119, 2-(((2R,3S,4R,5R)-5-(2-chloro-6-morpholino-9H-purin-9-yl)-3-ethynyl-3,4-dihydroxytetrahydrofuran-2-yl)methoxy)-2-(phenylsulfonyl)acetic acid]
1710 nM	C#C[C@@]1(O)[C@@H](COC(Cc2ccccc2)(C(=O)O)C(=O)OCC)O[C@@H](n2cnc3c(N)nc(C(N)=O)nc32)[C@@H]1O (stereo partly drawn) [Example 121, 2-(((2R,3S,4R,5R)-5-(6-amino-2-carbamoyl-9H-purin-9-yl)-3-ethynyl-3,4-dihydroxytetrahydrofuran-2-yl)methoxy)-2-benzyl-3-ethoxy-3-oxopropanoic acid]
40 nM	C#C[C@@]1(O)[C@@H](COC(Cc2ccccc2)(C(=O)O)C(=O)O)O[C@@H](n2cnc3c(N)nc(C(N)=O)nc32)[C@@H]1O [Example 122, 2-(((2R,3S,4R,5R)-5-(6-amino-2-carbamoyl-9H-purin-9-yl)-3-ethynyl-3,4-dihydroxytetrahydrofuran-2-yl)methoxy)-2-benzylmalonic acid]
235 nM	C#C[C@@]1(O)[C@@H](COC(Cc2ccccc2)(C(=O)O)C(=O)O)O[C@@H](n2cnc3ccc(C(F)(F)F)nc32)[C@@H]1O [Example 125, 2-benzyl-2-(((2R,3S,4R,5R)-3-ethynyl-3,4-dihydroxy-5-(5-(trifluoromethyl)-3H-imidazo[4,5-b]pyridin-3-yl)tetrahydrofuran-2-yl)methoxy)malonic acid]
